Measurements reported in patent publication US10626095B2, “Cyanotriazole compounds” (OTSUKA PHARMACEUTICAL CO., LTD., priority 2013, dated 2020).
pEC50: −log10 of the molar value.

Key:
[1] = system: NaCT-CHO (CHO cells stably expressing human NaCT); assay: Assay of the citric acid cycle activation ([1,5-14C]-citric acid, diffusion of [14C]-CO2); type: cell-based; details: 1 hour incubation at 37° C. with [1,5-14C]-citric acid
Procedure, shortened: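 NaCT-CHO cells (pME-CHO empty-vector cells for non-specific counts) were incubated 1 h at 37 °C in Na+-containing HEPES-Tris pH 7.4 with compound plus an equal volume of 0.4 mM [1,5-14C]-citric acid solution. Residual cell radioactivity was counted, [14C]-CO2 diffusion was taken as (Total−R)/(Total−NS)×100%, and EC50 was derived by regression.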

[2] = system: Zucker Diabetic Fatty (ZDF) rat; assay: Meal load test in type 2 diabetic model rats (postprandial blood glucose); type: in vivo; set-up: unit not given here; details: ZDF rats fasted overnight, oral 10 mg/kg in 5% Arabia gum, blood glucose one hour after meal loading (50 kcal/kg)
Description: Effects on Type 2 Diabetes: Meal Load Test
To evaluate whether a cyanotriazol compound improves diabetes or not, especially related to postprandial blood glucose, meal load test was performed using one of type 2 diabetic model rats, the Zucker Diabetic Fatty (ZDF) rat (Charles river, Japan). About 24 animals fasted overnight (17 h) were taken blood samples from the tail veins, and measured blood glucose levels (Pre BG) and body weights (BW). Proper animals were selected and divided into […] (n=6) based on the Pre BG and BW using SAS Statistical Analysis System (SAS institute Japan Ltd. Release 9.1). The compounds to be tested (10 or 30 mg/kg body weight in 5% Arabia gum) or Arabia gum solution only (vehicle group) were orally administrated via gavage two hours prior to or just before meal loading (50 kcal/kg body weight). The meal suspension was prepared by mixing purified AIN-93G (Norsan Corp, Yokohama, Japan) and distilled water (2:3, w/v). One-hour after meal loading, blood glucose (BG1h) of each animal was measured. Effectiveness of each compound was shown by ? BG1h (BG1h difference between compound group and vehicle group). Although a set of 24 animals was used several times (from 13 weeks to 21 weeks of age), at least a one-week interval was placed from one to another test.

**Q.** Which results are given for `CCc1sc(-c2ccc(Cl)cc2F)nc1-c1nn[nH]c1C#N` [Example 1248, 5-[2-(4-chloro-2-fluoro-phenyl)-5-ethyl-thiazol-4-yl]-3H-[1,2,3]triazole-4-carbonitrile]?
**A.** pEC50 [1]: 5.52; BG1h (BG1h difference between compound group and vehicle group) [2]: −82.2

**Q.** With `N#Cc1[nH]nnc1-c1cccc(/C=C/c2ccc(F)c(C(F)(F)F)c2)c1` [Example 663, 5-{3-[(E)-2-(4-fluoro-3-trifluoromethyl-phenyl)-vinyl]-phenyl}-3H-[1,2,3]triazole-4-carbonitrile] as the compound, how does the pEC50 [1] read?
**A.** The pEC50 was 5.90.

**Q.** What about the “BG1h (BG1h difference between compound group and vehicle group)” value [2] of the same compound?
**A.** The value was −149.5.

**Q.** With `N#Cc1[nH]nnc1-c1cc(/C=C/c2ccc(F)cc2)cc(OC(F)(F)F)c1` [Example 639, 5-{3-[(E)-2-(4-fluoro-phenyl)-vinyl]-5-trifluoromethoxy-phenyl}-3H-[1,2,3]triazole-4-carbonitrile] as the compound, how does the pEC50 [1] read?
**A.** The pEC50 was 5.92.

**Q.** What about the “BG1h (BG1h difference between compound group and vehicle group)” value [2] of the same compound?
**A.** The value was −58.5.

**Q.** `CC(C)c1oc(-c2ccc(Cl)cc2)nc1-c1nn[nH]c1C#N` [Example 122, 5-[2-(4-chloro-phenyl)-5-isopropyl-oxazol-4-yl]-3H-[1,2,3]triazole-4-carbonitrile] was tested. Which pEC50 [1] did it give?
**A.** The pEC50 was 6.29.

**Q.** What about the “BG1h (BG1h difference between compound group and vehicle group)” value [2] of the same compound?
**A.** Its value is −75.5.

**Q.** How did the pEC50 [1] turn out when `CCc1sc(-c2ccc(C(F)(F)F)cn2)nc1-c1nn[nH]c1C#N` [Example 100] was run?
**A.** The pEC50 was 6.27.

**Q.** And the “BG1h (BG1h difference between compound group and vehicle group)” value [2]?
**A.** Its value is −100.5.

**Q.** With `N#Cc1[nH]nnc1-c1cc2ccc(-c3ccc(F)cc3)cc2o1` [Example 147, 5-[6-(4-fluoro-phenyl)-benzofuran-2-yl]-3H-[1,2,3]triazole-4-carbonitrile] as the compound, how does the pEC50 [1] read?
**A.** The pEC50 was 5.78.

**Q.** What about the “BG1h (BG1h difference between compound group and vehicle group)” value [2] of the same compound?
**A.** The value was −80.5.

**Q.** What does the source list for `N#Cc1[nH]nnc1-c1cc(Cl)cc(/C=C/c2cccc(C(F)(F)F)c2)c1` [Example 47, 5-{3-chloro-5-[(E)-2-(3-trifluoromethyl-phenyl)-vinyl]-phenyl}-3H-[1,2,3]triazole-4-carbonitrile]?
**A.** pEC50 [1]: 5.97; BG1h (BG1h difference between compound group and vehicle group) [2]: −89.7

**Q.** With `COc1cc(/C=C/c2cccc(C(F)(F)F)c2)cc(-c2nn[nH]c2C#N)c1` [Example 657, 5-{3-methoxy-5-[(E)-2-(3-trifluoromethyl-phenyl)-vinyl]-phenyl}-3H-[1,2,3]triazole-4-carbonitrile] as the compound, how does the pEC50 [1] read?
**A.** The pEC50 was 5.94.

**Q.** What about the “BG1h (BG1h difference between compound group and vehicle group)” value [2] of the same compound?
**A.** The value was −120.5.

**Q.** `N#Cc1[nH]nnc1-c1ccc2ccn(CCCC(F)(F)F)c2c1` [Example 146] was tested. Which pEC50 [1] did it give?
**A.** Its pEC50 is 6.39.

**Q.** What about the “BG1h (BG1h difference between compound group and vehicle group)” value [2] of the same compound?
**A.** Its value is −94.9.

**Q.** How did the pEC50 [1] turn out when `N#Cc1[nH]nnc1-c1cc(Cl)cc(/C=C/c2ccc(F)cc2)c1` [Example 623, 5-{3-chloro-5-[(E)-2-(4-fluoro-phenyl)-vinyl]-phenyl}-3H-[1,2,3]triazole-4-carbonitrile] was run?
**A.** Its pEC50 is 6.16.

**Q.** What about the “BG1h (BG1h difference between compound group and vehicle group)” value [2] of the same compound?
**A.** The value was −111.2.

**Q.** With `N#Cc1[nH]nnc1-c1cccc(OCc2ccc(C(F)(F)F)c(C(F)(F)F)c2)c1` [Example 423, 5-[3-(3,4-bis-trifluoromethyl-benzyloxy)-phenyl]-3H-[1,2,3]triazole-4-carbonitrile] as the compound, how does the pEC50 [1] read?
**A.** The pEC50 was 6.04.

**Q.** And the “BG1h (BG1h difference between compound group and vehicle group)” value [2]?
**A.** Its value is −87.6.

**Q.** Which results are given for `N#Cc1[nH]nnc1-c1cc(Cl)cc(-c2nccc(C(F)(F)F)n2)c1` [Example 23, 5-[3-chloro-5-(4-trifluoromethyl-pyrimidin-2-yl)-phenyl]-3H-[1,2,3]triazole-4-carbonitrile]?
**A.** pEC50 [1]: 6.35; BG1h (BG1h difference between compound group and vehicle group) [2]: −137.0

**Q.** What does the source list for `N#Cc1[nH]nnc1-c1cc(Cl)cc(-c2ccc(OC(F)(F)F)c(F)c2)c1` [Example 276, 5-(5-chloro-3′-fluoro-4′-trifluoromethoxy-biphenyl-3-yl)-3H-[1,2,3]triazole-4-carbonitrile]?
**A.** pEC50 [1]: 6.07; BG1h (BG1h difference between compound group and vehicle group) [2]: −71.4

**Q.** Which results are given for `N#Cc1[nH]nnc1-c1cc(N2CCCC2)nc(-c2ccccc2)n1` [Example 1676, 5-(2-phenyl-6-(pyrrolidin-1-yl)-pyrimidin-4-yl)-3H-[1,2,3]triazole-4-carbonitrile]?
**A.** pEC50 [1]: 5.65; BG1h (BG1h difference between compound group and vehicle group) [2]: −49.5

**Q.** `N#Cc1[nH]nnc1-c1cccc(-c2cc(F)cc(C(F)(F)F)c2)c1` [Example 220, 5-(5′-fluoro-3′-trifluoromethyl-biphenyl-3-yl)-3H-[1,2,3]triazole-4-carbonitrile] was tested. Which pEC50 [1] did it give?
**A.** The pEC50 was 6.46.

**Q.** What about the “BG1h (BG1h difference between compound group and vehicle group)” value [2] of the same compound?
**A.** The value was −85.6.

**Q.** Which results are given for `N#Cc1[nH]nnc1-c1cc(OC(F)(F)F)cc(-c2ccc(OC(F)(F)F)c(F)c2)c1` [Example 298, 5-(3′-fluoro-5,4′-bis-trifluoromethoxy-biphenyl-3-yl)-3H-[1,2,3]triazole-4-carbonitrile]?
**A.** pEC50 [1]: 6.13; BG1h (BG1h difference between compound group and vehicle group) [2]: −62.8

**Q.** How did the pEC50 [1] turn out when `N#Cc1[nH]nnc1-c1csc(-c2cccc(OC(F)(F)F)c2)n1` [Example 79, 5-[2-(3-trifluoromethoxy-phenyl)-thiazol-4-yl]-3H-[1,2,3]triazole-4-carbonitrile] was run?
**A.** Its pEC50 is 6.21.

**Q.** What about the “BG1h (BG1h difference between compound group and vehicle group)” value [2] of the same compound?
**A.** The value was −51.0.

**Q.** `N#Cc1[nH]nnc1-c1ccc(/C=C/c2cccc(C(F)(F)F)c2)o1` [Example 137, 5-{5-[(E)-2-(3-trifluoromethyl-phenyl)-vinyl]-furan-2-yl}-3H-[1,2,3]triazole-4-carbonitrile] was tested. Which pEC50 [1] did it give?
**A.** The pEC50 was 6.24.

**Q.** What about the “BG1h (BG1h difference between compound group and vehicle group)” value [2] of the same compound?
**A.** Its value is −162.6.

**Q.** How did the pEC50 [1] turn out when `N#Cc1[nH]nnc1-c1nc(-c2cccc(C(F)(F)F)c2)oc1C1CC1` [Example 120, 5-[5-cyclopropyl-2-(3-trifluoromethyl-phenyl)-oxazol-4-yl]-3H-[1,2,3]triazole-4-carbonitrile] was run?
**A.** Its pEC50 is 6.05.

**Q.** What about the “BG1h (BG1h difference between compound group and vehicle group)” value [2] of the same compound?
**A.** Its value is −114.3.

**Q.** `N#Cc1[nH]nnc1-c1cccc(-c2nccc(C(F)(F)F)n2)c1` [Example 21, 5-[3-(4-trifluoromethyl-pyrimidin-2-yl)-phenyl]-3H-[1,2,3]triazole-4-carbonitrile] was tested. Which pEC50 [1] did it give?
**A.** The pEC50 was 6.11.

**Q.** What about the “BG1h (BG1h difference between compound group and vehicle group)” value [2] of the same compound?
**A.** Its value is −95.7.

**Q.** Which results are given for `N#Cc1[nH]nnc1-c1cc(/C=C/c2cccc(C(F)(F)F)c2)cc(C(F)(F)F)c1` [Example 620, 5-{3-trifluoromethyl-5-[(E)-2-(3-trifluoromethyl-phenyl)-vinyl]-phenyl}-3H-[1,2,3]triazole-4-carbonitrile]?
**A.** pEC50 [1]: 5.84; BG1h (BG1h difference between compound group and vehicle group) [2]: −159.7

**Q.** How did the pEC50 [1] turn out when `N#Cc1[nH]nnc1-c1cc(OCc2cc(C(F)(F)F)ccc2C(F)(F)F)cc(OC(F)(F)F)c1` [Example 504, 5-[3-(2,5-bis-trifluoromethyl-benzyloxy)-5-trifluoromethoxy-phenyl]-3H-[1,2,3]triazole-4-carbonitrile] was run?
**A.** The pEC50 was 5.83.

**Q.** What about the “BG1h (BG1h difference between compound group and vehicle group)” value [2] of the same compound?
**A.** The value was −69.1.

**Q.** `N#Cc1[nH]nnc1-c1cccc(OCc2cc(C(F)(F)F)ccc2C(F)(F)F)c1` [Example 60, 5-[3-(2,5-bis-trifluoromethyl-benzyloxy)-phenyl]-3H-[1,2,3]triazole-4-carbonitrile] was tested. Which pEC50 [1] did it give?
**A.** Its pEC50 is 6.52.

**Q.** And the “BG1h (BG1h difference between compound group and vehicle group)” value [2]?
**A.** The value was −132.0.

**Q.** How did the pEC50 [1] turn out when `N#Cc1[nH]nnc1-c1cccc(/C=C/c2ccc(F)cc2)c1` [Example 640, 5-{3-[(E)-2-(4-fluoro-phenyl)-vinyl]-phenyl}-3H-[1,2,3]triazole-4-carbonitrile] was run?
**A.** The pEC50 was 6.17.

**Q.** And the “BG1h (BG1h difference between compound group and vehicle group)” value [2]?
**A.** The value was −62.0.

**Q.** Which results are given for `CCOc1cc(-c2nccc(C(F)(F)F)n2)cc(-c2nn[nH]c2C#N)c1` [Example 944, 5-[3-ethoxy-5-(4-trifluoromethyl-pyrimidin-2-yl)-phenyl]-38-[1,2,3]triazole-4-carbonitrile]?
**A.** pEC50 [1]: 6.00; BG1h (BG1h difference between compound group and vehicle group) [2]: −125.1
